Assay results taken from PubChem BioAssay (NCI).
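48-hour exposure; five concentrations; linearly interpolated endpoints. The concentration for 50% growth inhibition is given as GI50. TGI: concentration producing complete growth inhibition.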

Key:
Experiment in all cases: DTP human tumour cell line panel, 48 h
[1] = system: 786-0 renal
[2] = system: A498 renal
[3] = system: A549 NSCLC
[4] = system: ACHN renal
[5] = system: BT-549 breast
[6] = system: CAKI-1 renal
[7] = system: CCRF-CEM leukemia
[8] = system: COLO 205 colon
[9] = system: DU-145 prostate
[10] = system: EKVX NSCLC
[11] = system: HCC-2998 colon
[12] = system: HCT-116 colon
[13] = system: HCT-15 colon
[14] = system: HL-60(TB) leukemia
[15] = system: HOP-62 NSCLC
[16] = system: HOP-92 NSCLC
[17] = system: HS 578T breast
[18] = system: HT29 colon
[19] = system: IGROV1 ovarian
[20] = system: K-562 leukemia
[21] = system: KM12 colon
[22] = system: LOX IMVI melanoma
[23] = system: M14 melanoma
[24] = system: MALME-3M melanoma
[25] = system: MCF7 breast
[26] = system: MDA-MB-231 breast
[27] = system: MDA-MB-435
[28] = system: MOLT-4 leukemia
[29] = system: NCI-H226 lung
[30] = system: NCI-H23 lung
[31] = system: NCI-H460 lung
[32] = system: NCI-H522 lung
[33] = system: NCI/ADR-RES ovarian
[34] = system: OVCAR-3 ovarian
[35] = system: OVCAR-4 ovarian
[36] = system: OVCAR-5 ovarian
[37] = system: OVCAR-8 ovarian
[38] = system: PC-3 prostate
[39] = system: RPMI-8226 leukemia
[40] = system: RXF 393 renal
[41] = system: SF-268 CNS
[42] = system: SF-295 CNS
[43] = system: SF-539 CNS
[44] = system: SK-MEL-2 melanoma
[45] = system: SK-MEL-28 melanoma
[46] = system: SK-MEL-5 melanoma
[47] = system: SK-OV-3 ovarian
[48] = system: SN12C renal
[49] = system: SNB-19 CNS
[50] = system: SNB-75 CNS
[51] = system: SR leukemia
[52] = system: SW-620 colon
[53] = system: T-47D breast
[54] = system: TK-10 renal
[55] = system: U251 CNS
[56] = system: UACC-257 melanoma
[57] = system: UACC-62 melanoma
[58] = system: UO-31 renal
[59] = system: MDA-N

## CC(C)N1CCN(Cc2ccc3c(NNC(=O)c4ccccc4)nc4cc(F)ccc4n23)CC1
[1]
  GI50: 0.323 µM
  TGI: 6.01 µM
[2]
  GI50: 0.564 µM
  TGI: 4.12 µM
[3]
  GI50: 0.465 µM
  TGI: 8.47 µM
[4]
  GI50: 0.0902 µM
  TGI: 12 µM
[5]
  GI50: 0.629 µM
  TGI: 12.1 µM
[6]
  GI50: 0.249 µM
  TGI: 6.26 µM
[7]
  GI50: 0.146 µM
  TGI: 4.09 µM
[8]
  GI50: 0.273 µM
  TGI: 3.47 µM
[9]
  GI50: 0.629 µM
  TGI: 13.3 µM
[10]
  GI50: 0.172 µM
  TGI: 6.79 µM
[11]
  GI50: 0.699 µM
  TGI: 6.45 µM
[12]
  GI50: 0.238 µM
  TGI: 1.45 µM
[13]
  GI50: 0.0563 µM
  TGI: 3.91 µM
[14]
  GI50: 0.322 µM
  TGI: 1.43 µM
[15]
  GI50: 0.176 µM
  TGI: 13.7 µM
[16]
  GI50: 0.678 µM
  TGI: 15.3 µM
[17]
  GI50: 4.23 µM
  TGI: 26.9 µM
[18]
  GI50: 0.673 µM
  TGI: 7.46 µM
[19]
  GI50: 0.406 µM
  TGI: 14.1 µM
[20]
  GI50: 0.379 µM
  TGI: 3.87 µM
[21]
  GI50: 0.397 µM
  TGI: 11 µM
[22]
  GI50: 0.198 µM
  TGI: 1.54 µM
[23]
  GI50: 0.23 µM
  TGI: 3.28 µM
[24]
  GI50: 0.575 µM
  TGI: 2.4 µM
[25]
  GI50: 0.341 µM
  TGI: 1.48 µM
[26]
  GI50: 0.497 µM
  TGI: 2.48 µM
[27]
  GI50: 0.655 µM
  TGI: 15.1 µM
[28]
  GI50: 0.24 µM
  TGI: 2.04 µM
[29]
  GI50: 0.534 µM
  TGI: 8.18 µM
[30]
  GI50: 0.93 µM
  TGI: 8.94 µM
[31]
  GI50: 0.128 µM
  TGI: 1.4 µM
[32]
  GI50: 0.532 µM
  TGI: 5.05 µM
[33]
  GI50: 0.237 µM
  TGI: 4.53 µM
[34]
  GI50: 0.289 µM
  TGI: 6.79 µM
[35]
  GI50: 0.293 µM
  TGI: 7.71 µM
[36]
  GI50: 0.674 µM
  TGI: 6.83 µM
[37]
  GI50: 0.381 µM
  TGI: 27.4 µM
[38]
  GI50: 0.402 µM
  TGI: 12.7 µM
[39]
  GI50: 0.476 µM
  TGI: 3.18 µM
[40]
  GI50: 0.792 µM
  TGI: 8.87 µM
[41]
  GI50: 0.355 µM
  TGI: 12.7 µM
[42]
  GI50: 0.277 µM
  TGI: 1.69 µM
[43]
  GI50: 0.403 µM
  TGI: 1.82 µM
[44]
  GI50: 2.78 µM
  TGI: 20.8 µM
[45]
  GI50: 0.599 µM
  TGI: 4.58 µM
[46]
  GI50: 0.921 µM
  TGI: 3.11 µM
[47]
  GI50: 0.338 µM
  TGI: 15.3 µM
[48]
  GI50: 0.529 µM
  TGI: 12.8 µM
[49]
  GI50: 0.537 µM
  TGI: 8.07 µM
[50]
  GI50: 0.451 µM
  TGI: 7.24 µM
[51]
  GI50: 0.185 µM
  TGI: 6.83 µM
[52]
  GI50: 0.463 µM
  TGI: 2.12 µM
[53]
  GI50: 0.419 µM
  TGI: 11.7 µM
[54]
  GI50: 0.216 µM
  TGI: 23.9 µM
[55]
  GI50: 0.296 µM
  TGI: 2.01 µM
[56]
  GI50: 0.81 µM
  TGI: 11.9 µM
[57]
  GI50: 0.388 µM
  TGI: 2.67 µM
[58]
  GI50: 0.0688 µM
  TGI: 3.14 µM

## CCOC(=O)c1nc2ccccc2nc1Oc1ccc(C(=O)OC)cc1
[1]
  TGI: > 100 µM
[2]
  TGI: > 100 µM
[3]
  TGI: > 100 µM
[4]
  TGI: > 100 µM
[5]
  TGI: > 100 µM
[6]
  TGI: > 100 µM
[7]
  TGI: > 100 µM
[8]
  TGI: > 100 µM
[9]
  TGI: > 100 µM
[10]
  TGI: > 100 µM
[12]
  TGI: > 100 µM
[13]
  TGI: > 100 µM
[15]
  TGI: > 100 µM
[16]
  TGI: > 100 µM
[17]
  TGI: > 100 µM
[18]
  TGI: > 100 µM
[19]
  TGI: > 100 µM
[20]
  TGI: > 100 µM
[21]
  TGI: > 100 µM
[22]
  TGI: > 100 µM
[23]
  TGI: > 100 µM
[24]
  TGI: > 100 µM
[25]
  TGI: > 100 µM
[26]
  TGI: > 100 µM
[27]
  TGI: > 100 µM
[59]
  TGI: > 100 µM
[28]
  TGI: > 100 µM
[29]
  TGI: > 100 µM
[31]
  TGI: > 100 µM
[33]
  TGI: > 100 µM
[34]
  TGI: > 100 µM
[35]
  TGI: > 100 µM
[36]
  TGI: > 100 µM
[37]
  TGI: > 100 µM
[38]
  TGI: > 100 µM
[39]
  TGI: > 100 µM
[40]
  TGI: > 100 µM
[41]
  TGI: > 100 µM
[42]
  TGI: > 100 µM
[43]
  TGI: > 100 µM
[44]
  TGI: > 100 µM
[45]
  TGI: > 100 µM
[46]
  TGI: > 100 µM
[47]
  TGI: > 100 µM
[48]
  TGI: > 100 µM
[49]
  TGI: > 100 µM
[50]
  TGI: > 100 µM
[52]
  TGI: > 100 µM
[53]
  TGI: > 100 µM
[54]
  TGI: > 100 µM
[55]
  TGI: > 100 µM
[56]
  TGI: > 100 µM
[57]
  TGI: > 100 µM
[58]
  TGI: > 100 µM

## C(=Nc1ccc(-c2nc3ccccc3[nH]2)cc1)c1ccc[nH]1
[1]
  TGI: > 100 µM
[2]
  TGI: > 100 µM
[3]
  TGI: > 100 µM
[4]
  TGI: > 100 µM
[5]
  TGI: > 100 µM
[6]
  TGI: > 100 µM
[7]
  TGI: 85.1 µM
[8]
  TGI: > 100 µM
[9]
  TGI: > 100 µM
[10]
  TGI: > 100 µM
[11]
  TGI: > 100 µM
[12]
  TGI: > 100 µM
[13]
  TGI: > 100 µM
[14]
  TGI: 20.1 µM
[15]
  TGI: > 100 µM
[16]
  TGI: > 100 µM
[17]
  TGI: > 100 µM
[18]
  TGI: > 100 µM
[19]
  TGI: > 100 µM
[20]
  TGI: > 100 µM
[21]
  TGI: > 100 µM
[22]
  TGI: > 100 µM
[23]
  TGI: > 100 µM
[24]
  TGI: > 100 µM
[25]
  TGI: > 100 µM
[27]
  TGI: > 100 µM
[59]
  TGI: > 100 µM
[28]
  TGI: > 100 µM
[30]
  TGI: > 100 µM
[32]
  TGI: > 100 µM
[33]
  TGI: > 100 µM
[34]
  TGI: > 100 µM
[35]
  TGI: > 100 µM
[36]
  TGI: > 100 µM
[37]
  TGI: > 100 µM
[38]
  TGI: > 100 µM
[39]
  TGI: > 100 µM
[40]
  TGI: > 100 µM
[41]
  TGI: > 100 µM
[43]
  TGI: > 100 µM
[44]
  TGI: > 100 µM
[45]
  TGI: > 100 µM
[46]
  TGI: > 100 µM
[48]
  TGI: > 100 µM
[50]
  TGI: > 100 µM
[51]
  TGI: > 100 µM
[52]
  TGI: > 100 µM
[53]
  TGI: > 100 µM
[54]
  TGI: > 100 µM
[56]
  TGI: > 100 µM
[57]
  TGI: > 100 µM
[58]
  TGI: > 100 µM
